# Test results as given in patent US8921389B2, “Naphthyridine derivatives as inhibitors of hypoxia inducible factor (HIF) hydroxylase” (Fibrogen, Inc., priority 2011, dated 2014).
# Target: HIF-PH2 (EGLN1) (Homo sapiens (Human), UniProt Q9GZT9)
# Assay: HIF-PH assay (14CO2 capture, peptide-dependent turnover)
# Assay type: biochemical
# Conditions: enzyme inhibition against HIF-PH2; peptide-dependent percent turnover
# Source text: Ketoglutaric acid α-[1-^14C]-sodium salt, alpha-ketoglutaric acid sodium salt, and HPLC purified peptide may be obtained from commercial sources, e.g., Perkin-Elmer (Wellesley Mass.), Sigma-Aldrich, and SynPep Corp. (Dublin Calif.), respectively. […] For example, a HIF peptide for use in the HIF-PH assay is [methoxycoumarin]-[…]-amide. HIF-PH, e.g., HIF-PH2 (EGLN1), can be expressed in, e.g., insect Hi5 cells, and partially purified, e.g., through a SP ion exchange chromatography column. […] Reactions are initiated by addition of HIF-PH enzyme.
# The peptide-dependent percent turnover is calculated by subtracting percent turnover in the absence of peptide from percent turnover in the presence of substrate peptide. Percent inhibition and IC50 are calculated using peptide-dependent percent turnover at given inhibitor concentrations. Calculation of IC50 values for each inhibitor is conducted using GraFit software (Erithacus Software Ltd., Surrey UK).
# Representative compounds of the disclosure were analyzed using the HIF-PH assay described above.
# Chain of HIF-PH2 (EGLN1) (Q9GZT9 whole entry): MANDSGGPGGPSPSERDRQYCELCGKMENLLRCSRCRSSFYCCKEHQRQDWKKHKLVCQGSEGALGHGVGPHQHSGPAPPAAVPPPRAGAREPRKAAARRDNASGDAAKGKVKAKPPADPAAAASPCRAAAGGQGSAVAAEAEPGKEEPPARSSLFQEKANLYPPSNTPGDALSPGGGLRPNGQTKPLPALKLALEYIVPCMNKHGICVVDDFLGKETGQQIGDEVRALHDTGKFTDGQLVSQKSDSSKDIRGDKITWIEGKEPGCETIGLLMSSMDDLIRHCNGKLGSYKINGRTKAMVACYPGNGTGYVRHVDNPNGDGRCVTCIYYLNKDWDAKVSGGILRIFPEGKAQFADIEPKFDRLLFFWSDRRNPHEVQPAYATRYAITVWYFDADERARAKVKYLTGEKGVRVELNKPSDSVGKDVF
row,Structure (SMILES),IC50
1,"N#Cc1nc(C(=O)NCCCCC(=O)O)c(O)c2cc(-c3ccccc3)c(=O)n(Cc3ccccc3)c12 [Example 24, 5-[(1-Benzyl-8-cyano-5-hydroxy-2-oxo-3-phenyl-1,2-dihydro-[1,7]naphthyridine-6-carbonyl)-amino]-pentanoic acid]",> 200 µM
2,"CNC(=O)c1nc(C#N)c2c(=O)n(Cc3ccccc3)ccc2c1O [Example 38, 7-Benzyl-1-cyano-4-hydroxy-8-oxo-7,8-dihydro-[2,7]naphthyridine-3-carboxylic acid methylamide]",> 200 µM
3,"N#Cc1nc(C(=O)NC2CC2)c(O)c2ccn(Cc3ccccc3)c(=O)c12 [Example 39, 7-Benzyl-1-cyano-4-hydroxy-8-oxo-7,8-dihydro-[2,7]naphthyridine-3-carboxylic acid cyclopropylamide]",> 200 µM
4,"CNC(=O)c1nc(C#N)c2c(cc(-c3ccccc3)c(=O)n2Cc2ccccc2)c1O [Example 41, 1-Benzyl-8-cyano-5-hydroxy-2-oxo-3-phenyl-1,2-dihydro-[1,7]naphthyridine-6-carboxylic acid methylamide]",> 200 µM
5,"N#Cc1nc(C(=O)NCc2ccncc2)c(O)c2ccn(Cc3ccccc3)c(=O)c12 [Example 48, 7-Benzyl-1-cyano-4-hydroxy-8-oxo-7,8-dihydro-[2,7]naphthyridine-3-carboxylic acid (pyridin-4-ylmethyl)-amide]",195 µM
6,"CC(C)(CNC(=O)c1nc(C#N)c2c(=O)n(Cc3ccccc3)ccc2c1O)C(=O)O [Example 50, 3-[(7-Benzyl-1-cyano-4-hydroxy-8-oxo-7,8-dihydro-[2,7]naphthyridine-3-carbonyl)-amino]-2,2-dimethyl-propionic acid]",> 200 µM
7,"N#Cc1nc(C(=O)N[C@H](Cc2ccccc2)C(=O)O)c(O)c2ccn(Cc3ccccc3)c(=O)c12 [Example 51, (R)-2-[(7-Benzyl-1-cyano-4-hydroxy-8-oxo-7,8-dihydro-[2,7]naphthyridine-3-carbonyl)-amino]-3-phenyl-propionic acid]",> 200 µM
8,"N#Cc1nc(C(=O)NCCCCC(=O)O)c(O)c2ccn(Cc3ccccc3)c(=O)c12 [Example 52, 5-[(7-Benzyl-1-cyano-4-hydroxy-8-oxo-7,8-dihydro-[2,7]naphthyridine-3-carbonyl)-amino]-pentanoic acid]",> 200 µM
9,"O=C(O)CCNC(=O)c1ncc2ccn(Cc3ccccc3)c(=O)c2c1O [Example 54, 3-[(6-Benzyl-4-hydroxy-5-oxo-5,6-dihydro-[2,6]naphthyridine-3-carbonyl)-amino]-propionic acid]",181 µM
10,"N#Cc1nc(C(=O)N[C@@H](Cc2ccccc2)C(=O)O)c(O)c2ccn(Cc3ccccc3)c(=O)c12 [Example 56, (S)-2-[(7-Benzyl-1-cyano-4-hydroxy-8-oxo-7,8-dihydro-[2,7]naphthyridine-3-carbonyl)-amino]-3-phenyl-propionic acid]",> 200 µM
11,"N#Cc1nc(C(=O)NCCN2CCOCC2)c(O)c2ccn(Cc3ccccc3)c(=O)c12 [Example 59, 7-Benzyl-1-cyano-4-hydroxy-8-oxo-7,8-dihydro-[2,7]naphthyridine-3-carboxylic acid (2-morpholin-4-yl-ethyl)-amide]",> 200 µM
12,"N#Cc1nc(C(=O)NCc2ccnnc2)c(O)c2ccn(Cc3ccccc3)c(=O)c12 [Example 60, 7-Benzyl-1-cyano-4-hydroxy-8-oxo-7,8-dihydro-[2,7]naphthyridine-3-carboxylic acid (pyridazin-4-ylmethyl)-amide]",177 µM
13,"N#Cc1nc(C(=O)NCC2(C(=O)O)CCC2)c(O)c2ccn(Cc3ccccc3)c(=O)c12 [Example 62, 1-{[(7-Benzyl-1-cyano-4-hydroxy-8-oxo-7,8-dihydro-[2,7]naphthyridine-3-carbonyl)-amino]-methyl}-cyclobutanecarboxylic acid]",182 µM
14,"O=C(O)CCNC(=O)c1ncc2ccc(=O)n(Cc3ccccc3)c2c1O [Example 70, 3-[(1-Benzyl-8-hydroxy-2-oxo-1,2-dihydro-[1,6]naphthyridine-7-carbonyl)-amino]-propionic acid]",167 µM
15,"CC(C)(CNC(=O)c1ncc2ccc(=O)n(Cc3ccccc3)c2c1O)C(=O)O [Example 71, 3-[(1-Benzyl-8-hydroxy-2-oxo-1,2-dihydro-[1,6]naphthyridine-7-carbonyl)-amino]-2,2-dimethyl-propionic acid]",> 200 µM
16,"CCCNC(=O)CCCNC(=O)c1nc(C#N)c2c(=O)n(Cc3ccccc3)ccc2c1O [Example 73, 7-Benzyl-1-cyano-4-hydroxy-8-oxo-7,8-dihydro-[2,7]naphthyridine-3-carboxylic acid (3-propylcarbamoyl-propyl)-amide]",> 200 µM

row,Structure (SMILES),IC50
1,"CNC(=O)c1ncc2ccc(=O)n(Cc3ccccc3)c2c1O [Example 75, 1-Benzyl-8-hydroxy-2-oxo-1,2-dihydro-[1,6]naphthyridine-7-carboxylic acid methylamide]",> 200 µM
2,"COc1ccc(Cn2ccc3c(O)c(C(=O)NCCc4ccccc4)ncc3c2=O)c(OC)c1 [Example 76, 7-(2,4-Dimethoxy-benzyl)-4-hydroxy-8-oxo-7,8-dihydro-[2,7]naphthyridine-3-carboxylic acid phenethyl-amide]",> 200 µM
3,"COc1ccc(Cn2ccc3c(O)c(C(=O)NCc4ccc(F)cc4)ncc3c2=O)c(OC)c1 [Example 78, 7-(2,4-Dimethoxy-benzyl)-4-hydroxy-8-oxo-7,8-dihydro-[2,7]naphthyridine-3-carboxylic acid 4-fluoro-benzylamide]",> 200 µM
4,"CNC(=O)c1nc(C#N)c2ccc(=O)n(Cc3ccccc3)c2c1O [Example 79, 1-Benzyl-5-cyano-8-hydroxy-2-oxo-1,2-dihydro-[1,6]naphthyridine-7-carboxylic acid methylamide]",> 200 µM
5,"O=C(NCc1nnn[nH]1)c1ncc2ccc(=O)n(Cc3ccccc3)c2c1O [Example 82, 1-Benzyl-8-hydroxy-2-oxo-1,2-dihydro-[1,6]naphthyridine-7-carboxylic acid (1H-tetrazol-5-ylmethyl)-amide]",138 µM
6,"CC(C)(CNC(=O)c1nc(-c2cncc(F)c2)c2c(=O)n(Cc3ccccc3)ccc2c1O)C(=O)O [Example 88, 3-{[7-Benzyl-1-(5-fluoro-pyridin-3-yl)-4-hydroxy-8-oxo-7,8-dihydro-[2,7]naphthyridine-3-carbonyl]-amino}-2,2-dimethyl-propionic acid]",> 200 µM
7,"CC(C)NC(=O)NCCNC(=O)c1ncc2c(=O)n(Cc3ccccc3)ccc2c1O [Example 89, 7-Benzyl-4-hydroxy-8-oxo-7,8-dihydro-[2,7]naphthyridine-3-carboxylic acid [2-(3-isopropyl-ureido)-ethyl]-amide]",> 200 µM
8,"CC(=O)NCCNC(=O)c1nc(C#N)c2ccc(=O)n(Cc3ccccc3)c2c1O [Example 95, 1-Benzyl-5-cyano-8-hydroxy-2-oxo-1,2-dihydro-[1,6]naphthyridine-7-carboxylic acid (2-acetylamino-ethyl)-amide]",134 µM
9,"CC(=O)NCCNC(=O)c1ncc2ccc(=O)n(Cc3ccccc3)c2c1O [Example 96, 1-Benzyl-8-hydroxy-2-oxo-1,2-dihydro-[1,6]naphthyridine-7-carboxylic acid (2-acetylamino-ethyl)-amide]",137 µM
10,"CN(CCNC(=O)c1ncc2ccc(=O)n(Cc3ccccc3)c2c1O)S(C)(=O)=O [Example 105, 1-Benzyl-8-hydroxy-2-oxo-1,2-dihydro-[1,6]naphthyridine-7-carboxylic acid [2-(methanesulfonyl-methyl-amino)-ethyl]amide]",> 200 µM
11,"N#Cc1nc(C(=O)NCCS(N)(=O)=O)c(O)c2c1ccc(=O)n2Cc1ccccc1 [Example 106, 1-Benzyl-5-cyano-8-hydroxy-2-oxo-1,2-dihydro-[1,6]naphthyridine-7-carboxylic acid (2-sulfamoyl-ethyl)-amide]",> 200 µM
12,"O=C(NCCNC(=O)C(F)(F)F)c1ncc2c(cc(-c3ccccc3)c(=O)n2Cc2ccccc2)c1O [Example 109, 1-Benzyl-5-hydroxy-2-oxo-3-phenyl-1,2-dihydro-[1,7]naphthyridine-6-carboxylic acid [2-(2,2,2-trifluoro-acetylamino)-ethyl]-amide]",> 200 µM
13,"CCNC(=O)NCCNC(=O)c1ncc2c(cc(-c3ccccc3)c(=O)n2Cc2ccccc2)c1O [Example 110, 1-Benzyl-5-hydroxy-2-oxo-3-phenyl-1,2-dihydro-[1,7]naphthyridine-6-carboxylic acid [2-(3-ethyl-ureido)-ethyl]-amide]",200 µM
14,"CS(=O)(=O)NCCNC(=O)c1ncc2ccc(=O)n(Cc3ccccc3)c2c1O [Example 111, 1-Benzyl-8-hydroxy-2-oxo-1,2-dihydro-[1,6]naphthyridine-7-carboxylic acid (2-methanesulfonylamino-ethyl)-amide]",> 200 µM
15,"Cc1nc(C(=O)NCCC(=O)O)c(O)c2c1ccc(=O)n2Cc1ccccc1 [Example 112, 3-[(1-Benzyl-8-hydroxy-5-methyl-2-oxo-1,2-dihydro-[1,6]naphthyridine-7-carbonyl)-amino]-propionic acid]",> 200 µM
16,"CN(CCNC(=O)c1nc(-c2ccccc2)c2c(cc(-c3ccccc3)c(=O)n2Cc2ccccc2)c1O)S(C)(=O)=O [Example 133, 1-Benzyl-5-hydroxy-2-oxo-3,8-diphenyl-1,2-dihydro-[1,7]naphthyridine-6-carboxylic acid [2-(methanesulfonyl-methyl-amino)-ethyl]amide]",200 µM
